We go through two molecules from patent US20230190735A1 (TFF Pharmaceuticals, Inc., priority 2021, published 2023).

Where two headings read alike, the source gives them in different places. Bounds are passed on as bounds.

The conditions of data set [1]: major metabolite of voriconazole; cited from earlier work.
Data set [2] concerns the target CYP3A (Homo sapiens, UniProt P08684). The note with it: in vitro studies; CYP3A4; cited from earlier work.
The conditions of data set [3]: cited from earlier work; for reduction of mean AUC with high-fat meals: multiple doses.
The target in another data set is CYP2C9 (Homo sapiens, UniProt P11712). Particulars: in vitro studies; cited from earlier work.
The nature of data set [4]: PK of systemically administered (oral or IV) voriconazole, VFEND package insert and literature. Format: in vivo, human. The note with it: Imax = Cmax/MW.
For data set [5], the system named is CYP3A. Particulars: CYP3A; total drug; Ki values based on Jeong 2009; cited from earlier work.
The target of a further data set is T1, CYP2B6 (Homo sapiens, UniProt P20813).
T1 sequence (P20813 1-491): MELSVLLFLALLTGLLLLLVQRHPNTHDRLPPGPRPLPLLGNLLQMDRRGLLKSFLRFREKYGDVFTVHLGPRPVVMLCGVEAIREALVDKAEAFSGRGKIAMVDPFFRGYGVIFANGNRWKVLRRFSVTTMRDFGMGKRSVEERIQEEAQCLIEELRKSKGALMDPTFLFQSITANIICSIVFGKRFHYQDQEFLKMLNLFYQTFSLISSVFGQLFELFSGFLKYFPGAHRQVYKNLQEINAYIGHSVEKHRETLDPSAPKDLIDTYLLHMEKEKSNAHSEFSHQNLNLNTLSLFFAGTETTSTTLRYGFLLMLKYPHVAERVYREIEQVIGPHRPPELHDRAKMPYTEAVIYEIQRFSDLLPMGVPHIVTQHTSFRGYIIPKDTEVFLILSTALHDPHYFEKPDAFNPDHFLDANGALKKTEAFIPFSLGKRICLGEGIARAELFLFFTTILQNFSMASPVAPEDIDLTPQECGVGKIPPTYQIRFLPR
Particulars: total drug, Ki values based on Jeong 2009; cited from earlier work.

The conditions of data set [6]: independent of plasma concentration (approx. 0.9-15 μg/mL); cited from earlier work.
Setting [7] is: 3 mg/kg IV q12h, geometric mean (% CV).
The mark [8] stands for this setting: 4 mg/kg IV q12h, geometric mean (% CV).
Setting [9] is: 6 mg/kg IV (loading dose), geometric mean (% CV).
[10] abbreviates: 200 mg oral q12h, geometric mean (% CV).
Where [11] appears, read: 300 mg oral q12h, geometric mean (% CV).
The mark [12] stands for this setting: 400 mg oral (loading dose), geometric mean (% CV).

Chain of CYP3A (Homo sapiens, UniProt P08684) (P08684 2-503): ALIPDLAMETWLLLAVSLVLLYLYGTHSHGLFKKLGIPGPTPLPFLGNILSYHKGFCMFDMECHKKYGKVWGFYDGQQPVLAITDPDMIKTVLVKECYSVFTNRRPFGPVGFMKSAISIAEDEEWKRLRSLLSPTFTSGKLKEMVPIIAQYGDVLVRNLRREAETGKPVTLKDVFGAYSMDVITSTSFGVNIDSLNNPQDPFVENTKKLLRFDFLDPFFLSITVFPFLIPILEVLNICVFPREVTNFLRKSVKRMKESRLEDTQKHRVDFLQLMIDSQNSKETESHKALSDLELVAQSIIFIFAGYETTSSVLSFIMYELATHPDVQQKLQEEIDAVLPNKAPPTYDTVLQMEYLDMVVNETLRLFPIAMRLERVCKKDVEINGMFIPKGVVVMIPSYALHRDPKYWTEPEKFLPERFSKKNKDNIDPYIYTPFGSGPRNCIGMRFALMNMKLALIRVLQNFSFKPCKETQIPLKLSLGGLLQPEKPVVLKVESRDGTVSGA
Chain of CYP2C9 (P11712 whole entry): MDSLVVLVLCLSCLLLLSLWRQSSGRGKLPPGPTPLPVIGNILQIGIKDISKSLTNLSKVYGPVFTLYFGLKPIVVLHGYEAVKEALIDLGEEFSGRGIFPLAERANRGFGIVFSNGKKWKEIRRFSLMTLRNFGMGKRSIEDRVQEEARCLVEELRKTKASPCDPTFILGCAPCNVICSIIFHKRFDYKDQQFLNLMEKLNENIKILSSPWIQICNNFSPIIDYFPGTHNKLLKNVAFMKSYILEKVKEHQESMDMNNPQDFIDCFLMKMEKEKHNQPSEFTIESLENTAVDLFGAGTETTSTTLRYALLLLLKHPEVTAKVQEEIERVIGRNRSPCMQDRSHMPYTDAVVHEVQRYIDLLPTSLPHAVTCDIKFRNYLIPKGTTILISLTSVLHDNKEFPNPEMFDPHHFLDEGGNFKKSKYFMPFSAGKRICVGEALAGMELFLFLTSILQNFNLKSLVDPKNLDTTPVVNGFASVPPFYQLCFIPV

`C[C@@H](c1nc[n+]([O-])cc1F)[C@](O)(Cn1cncn1)c1ccc(F)cc1F` [N-oxide]: in data set [1], the antifungal activity result is on record as “minimal antifungal activity”. In addition, the “inhibition of metabolic activity of CYP3A4” value on CYP3A [2] is on record as “inhibits”. Besides, the “share of circulating radiolabeled metabolites in plasma” value in data set [3] (after radiolabeled voriconazole) is reported as 72%. Besides, the “inhibition of metabolic activity of CYP2C9” value at CYP2C9 is “inhibits”.

One may read the Ki as a dissociation constant, usually derived from enzyme kinetics or from competition with a known ligand. For `C[C@@H](c1ncncc1F)[C@](O)(Cn1cncn1)c1ccc(F)cc1F` [Voriconazole, (2R,3S)-2-(2,4-difluro-phenyl)-3-(5-flouro-4-pyrimidinyl)-1 (1H-1,2,4-triazol-1-yl)2-butanol], the results for the Imax oral in data set [4] (based on 200 mg q12h from VFEND label) and in data set [4] (based on Cmax from Anderson 2017) were 6.61 µM and 3.50 µM, respectively. Also, the inhibition constant (Ki) was 660 nM in the data set on CYP3A [5] and less than 500 nM at CYP2B6. Also, the AUC12 in data set [3] (setting [7]) was 13.7 (53) μg:h/mL; in data set [3] (setting [8]), 33.9 (54) μg:h/mL; in data set [3] (setting [9]) it was 13.9 (32) μg:h/mL; in data set [3] (200 mg oral q12h, adults, geometric mean (% CV)), 12.4 (78) μg · h/mL; in data set [3] (setting [10]) it was 12.4 (78) μg:h/mL; in data set [3] (300 mg oral q12h, adults, geometric mean (% CV)), 34.0 (53) μg · h/mL. The AUC12 in data set [3] (setting [11]) is reported as 34.0 (53) μg:h/mL; in data set [3] (400 mg oral (loading dose), adults, geometric mean (% CV)), 9.31 (38) μg · h/mL; in data set [3] (setting [12]), 9.31 (38) μg:h/mL. Moreover, the Cmax in data set [3] (setting [7]) is 3.03 (25) μg/mL; in data set [3] (setting [8]) it was 4.77 (36) μg/mL; in data set [3] (setting [9]), 3.13 (20) μg/mL; in data set [3] (setting [10]), 2.31 (48) μg/mL; in data set [3] (setting [11]), 4.74 (35) μg/mL; in data set [3] (setting [12]) it was 2.30 (19) μg/mL. Also, the Cmax in data set [3] (oral 200 mg dose) was 2310 ng/mL. Moreover, the figures for the “reduction of mean AUC with high-fat meals” value in data set [3] (oral suspension) and in data set [3] (tablet) were 37% and 24%, respectively. Besides, the “volume of distribution at steady state” value in data set [3] (oral or IV administration) is recorded as 4.6 L/kg. Besides, the oral bioavailability in data set [3] (population PK analysis, healthy subjects (N=207)) is given as 96%. Besides, the Plasma protein binding in data set [6] is 58%.
